Consider three compounds from ChEMBL document CHEMBL5726441, “Isoindolone derivatives” (2017).

As a reminder, the Ki is the equilibrium dissociation constant of an inhibitor or competing ligand from its target.

In the assay the target is Bromodomain-containing protein 4 (Homo sapiens, UniProt O60885). Description: TR-FRET Assay: Compound dilution series were prepared in DMSO via a 3-fold serial dilution from 2.5 mM to 42 nM. Compounds were then diluted 6:100 in assay buffer (20 mM Sodium Phosphate, pH 6.0, 50 mM NaCl, 1 mM EDTA, 0.01% Triton X-100, 1 mM DTT) to yield 3× working solutions. Six microliters (μL) of the working solution was then transferred to white, low-volume assay plates (Costar #3673). A 1.5× assay mixture containing His-tagged bromodomain, Europium-conjugated anti-His antibody (Invitrogen PV5596) and the Alexa-647-conjugated probe molecule was also prepared. Twelve μL of this solution were added to the assay plate to reach a final volume of 18 μL. The final concentration of 1× assay buffer contains 2% DMSO, 50 μM−0.85 nM compound, 8 nM bromodomain, 1 nM antibody and 100 or 30 nM probe (for BDI or BDII, respectively). After a one-hour incubation at room temperature, TR-FRET ratios were determined using an Envision multilabel plate reader (Ex 340, Em 495/520).TR-FRET data were normalized to the means of 24 no-compound controls (high) and 8 controls containing 1 μM un-labeled probe (low). Percent inhibition was plotted as a function of compound concentration and the data were fit with the 4 parameter logistic equation to obtain IC50s Inhibition constants (Ki) were calculated from the IC50s, probe Kd and probe concentration. Typical Z′ values were between 0.65 and 0.75. The minimum significant ratio was determined to evaluate assay reproducibility (Eastwood et al., (2006) J Biomol Screen, 11: 253-261).
For `Cc1[nH]c(-c2ccccc2CN2C(=O)c3ccccc3C2=O)c2c1C(=O)CCC2`, the Ki was 6.22 µM.

Take `Cc1[nH]c(-c2cccc3ccccc23)c2c1C(=O)CCC2`: the Ki is 0.943 µM.

For `Cc1[nH]c(-c2ccccc2Oc2ccccc2)c2c1C(=O)CC(CC(C)C)C2` (stereo not drawn), the Ki was 3.62 µM.
